Usually pKa stands for the pH at which an ionisable group is half protonated.

The conditions of the first data set: acidic group.
For the compound `O=[N+]([O-])c1ccc(S(=O)O)cc1`, the pKa is 1.86.
On the same count and under the same terms, the figure for `CCCCCCCCCCCNCc1ccc(C)cc1` is 9.46; for `CCc1ccccc1C(=O)O` it is 3.79; for `CCCC(C)C1(CC)C(=O)NC(=O)NC1=O` (stereo unspecified) it is 8.08.
On the same count and under the same terms, next, `Oc1c(I)cc(Cl)c2cccnc12`: 7.9.
`O=c1cccc(O)cc1O` showed a pKa of 5.76.
In the case of `O=S(=O)(Nc1ncccn1)c1ccccc1`, the pKa was 5.91.
For `C=C=C(C)C(C)(C)C(=O)O`, the pKa is 4.55.
The same measure, in the same setting: next, `O=C1/C(=N/O)C=Cc2ccccc21`: 7.52; `C/C(O)=N\[N+](C)(C)C`: 5.42; `O=Cc1ncnc2nc[nH]c12`: 8.8.
The same measure, in the same setting: the figure for `[NH3+]C(Cc1ccccc1)c1nnn[nH]1` (stereo unspecified) is 1.93.
`CC(C)(/C=C/C(=O)O)c1cc(Br)ccc1O` registered a pKa of 4.46.
`N#CSc1ccc(O)cc1` came in with a pKa of 8.57.
On to `Oc1ccc2c(c1)CCCC2`, for which the pKa was 10.3.
In turn, `CC(C)(C)C1CCn2nnnc2C(C(=O)O)C1` (stereo unspecified) returned a pKa of 4.4.
Consider `Oc1onc2c1CC[NH2+]CC2`, for which the pKa was 3.3.
In turn, `CC(C)CNC=S` came in with a pKa of 12.8.
Same read-out and setting: the figure for `O=S(=O)(Nc1ccccc1)c1ccc(Cl)cc1` is 7.98; for `O=[N+]([O-])c1cccc(S(=O)(=O)Nc2ccccc2)c1` it is 7.5.
For `Oc1ccccc1C1=[NH+]CCN1`, the pKa came out at 6.63.
`O=[Se](O)c1ccccc1` showed a pKa of 4.79.
Compound `C=CC(CC(C)(C)CC(C)(C)C)c1ccc2cccnc2c1O` (stereo unspecified) registered a pKa of 10.
On to `O=C(O)Cc1nnn[nH]1`, for which the pKa stood at 3.1.
Compound `Oc1cccc[n+]1OCc1ccccc1` gave a pKa of -1.7.
On the same count and under the same terms, the figure for `CC(=O)CC(C)=O` is 8.85.
`O=C(O)[C@@H]1O[C@H](Oc2ccc3[nH+]ccc(O)c3c2)[C@@H](O)[C@H](O)[C@H]1O` registered a pKa of 3.15.
For the compound `Cc1cccc([Se]CC(=O)O)c1`, the pKa was determined as 3.78.
As for `CC(=N\O)/C(CN(C)C)=N\O`, the pKa worked out at 10.6.
Consider `OB1OCc2ccccc21`, for which the pKa is 7.38.
Take `Cc1n[nH]c2c1c(=O)n(C)c(=O)n2C`: the pKa came to 9.83.
In turn, `C[n+]1cccc2ccc(O)cc21` yielded a pKa of 5.56.
On the same count and under the same terms, the figure for `O=C1CCc2cc(Cl)ccc2C1` is 12.5; for `CC(C)(C)S` it is 11.1.
In turn, `N#CC(CCCC(=O)O)c1ccccc1` (stereo unspecified) gave a pKa of 4.64.
As for `CN(C)C(=S)OCC(=O)O`, the pKa amounted to 2.87.
For `OC(c1ccncc1)(c1ccncc1)c1cccnc1`, the pKa was 11.9.
In the case of `CCN(CC)CC(=N\O)/C(C)=N/O`, the pKa stood at 10.7.
In the case of `Cc1ccccc1[Se]CC(=O)O`, the pKa came out at 3.79.
On the same count and under the same terms, next, `Oc1ccc2cccc(I)c2c1`: 8.98.
Take `O=C(O)[C@H](O)c1ccccc1[N+](=O)[O-]`: the pKa is 3.15.
Compound `Oc1cccc2nnccc12` showed a pKa of 7.4.
`N#Cc1ccccc1O`: the pKa came to 7.32.
In turn, `Nc1cncnc1N` displayed a pKa of 9.33.
In the case of `O=C(O)c1ccc[nH+]c1[O-]`, the pKa was determined as 5.28.
Turning to `O=[N+]([O-])c1cc(C[NH+]2CCOCC2)c(O)c2ccccc12`, the pKa was found to be 3.
The same measure, in the same setting: the figure for `CCc1cc(CC)c(OC)c(C(=O)NC[C@H]2CCC[NH+]2CC)c1O` is 7.24; for `CN(C)c1ncnc2nc[nH]c12` it is 10.5.
Compound `S=C(/N=N/c1ccc2ccccc2c1)NNc1ccc2ccccc2c1` displayed a pKa of 12.7.
The compound `CCn1nnnc1CC(=O)O` registered a pKa of 2.85.
`Cc1csc(C(=O)O)c1` gave a pKa of 3.66.
Compound `O=C1C=C(S(=O)(=O)[O-])/C(=N/O)c2[nH]ncc21` had a pKa of 7.15.
`NC(=O)c1cccnc1` registered a pKa of 13.5.
For `CCNC(O)=S`, the pKa was 0.92.
`O=C1NC(=O)C(=NO)C(=O)N1` registered a pKa of 4.58.
For the compound `CC(c1ccccc1)[N+](=O)[O-]` (stereo unspecified), the pKa turned out to be 7.39.
As to `N#CC(C#N)=NNc1ccccc1C(F)(F)F`, the pKa came out at 5.
Regarding `CC(C)P(=O)(O)C(C)C`, the pKa was found to be 3.56.
As to `COc1c(O)cccc1CN`, the pKa turned out to be 10.5.
Take `O=C(O)COc1ccc([N+](=O)[O-])cc1`: the pKa was 2.89.

The same data set, now with this note: basic group.
In turn, `CN(C)c1ccc(/N=N/c2ccccn2)cc1` had a pKa of 4.5.
Consider `c1ccc(-c2ccnc3c2ccc2cccnc23)cc1`, for which the pKa was 4.9.
Still for that read-out and setting: the figure for `CN1CCCN(C)Cc2ccccc2OCCOc2ccccc2C1` is 10.1; for `CCCNCc1ccccc1` it is 9.62.
With `N=C1Cc2ccccc2N1`, the pKa was determined as 8.15.
`CNc1nc(C)nc2nc[nH]c12` showed a pKa of 5.08.
Same read-out and setting: the figure for `Nc1ccc2cnccc2c1` is 7.17; for `C[NH+]1CCCC1c1ccc(Cl)nc1` (stereo unspecified) it is -1.3.
The same measure, in the same setting: the figure for `c1ccc(CN(CC2CO2)CC2CO2)cc1` (stereo unspecified) is 5.75; for `CCCCCSC(=N)c1ccccc1` it is 8.5.
In turn, `Oc1c(I)cc(Cl)c2cccnc12` had a pKa of 2.61.
On the same count and under the same terms, next, `CCCN1CCCCC1`: 10.4; `COc1nccc(C)n1`: 2.1; `O=S(=O)(Nc1ncccn1)c1ccccc1`: 0.15.
For the compound `COc1ccc2ncccc2c1`, the pKa worked out at 5.05.
The compound `CSC(C)=N` gave a pKa of 6.71.
In the case of `O=C([O-])C1CCNC1` (stereo unspecified), the pKa is 10.7.
Same read-out and setting: the figure for `COc1ccc2c3c1O[C@H]1C(=O)CC[C@H]4[C@@H](C2)N(C)CC[C@]314` is 7.67; for `O=Cc1ncnc2nc[nH]c12` it is 2.4.
`C(C[NH2+]CCc1nnn[n-]1)NCCc1nnn[n-]1` gave a pKa of 6.3.
Compound `CC(=O)n1ccnc1` had a pKa of 3.6.
Take `CCCCCCCCCCCCCCN(CC(C)O)CC(O)CC` (stereo unspecified): the pKa is 6.1.
As for `NNCCOc1ccccc1`, the pKa amounted to 6.8.
Compound `Cc1ccccc1C(=NCCCCN(C)C)c1ccccc1C` returned a pKa of 8.8.
The compound `c1cc(-c2cc[nH+]cc2)ccn1` returned a pKa of 3.17.
`CCc1ccncc1` had a pKa of 5.94.
For the compound `O=C([O-])C1CCCN1` (stereo unspecified), the pKa stood at 10.6.
Still for that read-out and setting: the figure for `Cc1ccc(N)cc1Br` is 4.02; for `Cc1ccccc1C(=NCCN(C)C)c1ccccc1C` it is 8.5; for `Cc1cc([N+](=O)[O-])ccc1N` it is 1.97.
With `COc1ccc(CN2CC(O[Si](C)(C)C)C2)cc1`, the pKa came to 8.17.
Compound `Nc1cccnc1C(=O)[O-]` had a pKa of 7.18.
For `CCN(CC)CCCC(C)Nc1ccnc2cc(Br)ccc12` (stereo unspecified), the pKa is 10.2.
Compound `O=[Se](O)c1ccccc1` showed a pKa of -0.9.
In turn, `C=CC(CC(C)(C)CC(C)(C)C)c1ccc2cccnc2c1O` (stereo unspecified) yielded a pKa of 4.51.
Compound `Nc1cncn1[C@H]1O[C@@H](CO)[C@H](O)[C@@H]1O` had a pKa of 6.05.
`CCCC[C@H](N)C(=O)[O-]` showed a pKa of 9.76.
Compound `CC(=N\O)/C(CN(C)C)=N\O` showed a pKa of 8.4.
For `Cc1ccc2nccc(NCCC[NH+](C)C)c2c1[N+](=O)[O-]`, the pKa was found to be 6.15.
On to `c1ccc(Oc2ccncc2)cc1`, for which the pKa came out at 6.16.
Compound `c1ccc(-n2cccn2)[nH+]c1` yielded a pKa of -4.8.
In turn, `O=C(NCCN1CCOCC1)c1ccc(Cl)cc1` came in with a pKa of 6.31.
The compound `C1N2CN3CN1CN(C2)C3` came in with a pKa of 4.95.
Still for that read-out and setting: next, `Cc1ccccc1NC(=O)CN1CCCCC1`: 7.7; `CN(C)c1ccc(/C=C/c2cc(N)c3ccccc3n2)cc1`: 9.7.
Same read-out and setting: the figure for `CCC(=O)C(C[C@H](C)N1CCOCC1)(c1ccccc1)c1ccccc1` is 6.73; for `Clc1ccc2[nH]cnc2c1` it is 4.86.
In the case of `Cn1ccc(=S)c2ccccc21`, the pKa came to 0.56.
`COc1ccc(-c2cnc(-c3ccc(C)cc3)o2)cc1` returned a pKa of 1.26.
On to `NCCc1ccccc1`, for which the pKa was 9.89.
In turn, `CN1C[C@H](C(=O)[O-])C[C@@H]2c3cccc4[nH]cc(c34)C[C@@H]21` gave a pKa of 8.57.
The compound `Nc1n[nH]c(N)c1/N=N/c1ccccc1` registered a pKa of 3.43.
Consider `CCN(CC)CC(=O)[O-]`, for which the pKa was 10.5.
For the compound `OCCN(CCO)Cc1nc2ccccc2[nH]1`, the pKa turned out to be 5.93.
On to `CN1CCC(NNc2ccccc2)CC1`, for which the pKa is 8.7.
For the compound `Cn1cnc2ncncc21`, the pKa is 2.29.
On the same count and under the same terms, the figure for `COc1ccc2c3c1O[C@H]1CCC[C@H]4[C@@H]([C@@H]2O)N(C)CC[C@]314` is 9.41.
With `CC(C)([NH3+])C(N)=S`, the pKa was -8.75.
As to `Nc1nncc2ccccc12`, the pKa was found to be 6.6.
As for `Oc1cccc2nnccc12`, the pKa stood at 1.92.
Regarding `Cc1ccccc1/C(N)=N/O`, the pKa was determined as 4.03.
For the compound `O=[N+]([O-])c1cc(-c2ccccc2)nnc1NCC[NH+]1CCOCC1`, the pKa was 0.2.
For `Nc1cncnc1N`, the pKa was 6.03.
`CCCCN1CCCC1`: the pKa was determined as 10.4.
As for `NCC[NH3+]`, the pKa amounted to 7.14.
The compound `COc1ccc2c(c1O)CN(C)CCc1cc3c(cc1C(=O)C2)OCO3` returned a pKa of 9.
In the case of `N[C@H]1CCCCC[C@@H]1O`, the pKa was 9.35.
The compound `C=C(C)C(=O)NC(C)(C)CCN(C)C` gave a pKa of 9.37. The pKa values of the last two compounds are within 0.2 log units of each other.
Compound `c1nc(NC2CCCCC2)c2ncn(C3CCCCC3)c2n1` came in with a pKa of 4.4.
`CC(=O)Nc1ccc2nc3ccccc3cc2c1`: the pKa came out at 4.7.
The compound `CN(C)c1ncnc2nc[nH]c12` returned a pKa of 3.87.
In turn, `CC(=O)Nc1ccc2cc3ccccc3nc2c1` gave a pKa of 5.6.
Take `C/C(=C\C(C)=N\c1ccccc1)Nc1ccccc1`: the pKa came to 7.22.
`NC(=O)c1cccnc1` came in with a pKa of 3.32.
For the compound `Nc1ccc2nc3cc(N)ccc3cc2c1`, the pKa turned out to be 8.11.
For `CN(C)CCCC(=O)Oc1cccc([N+](=O)[O-])c1`, the pKa was found to be 9.82.
Turning to `[NH3+][C@@H](Cc1c[nH]cn1)C(=O)N[C@@H](Cc1c[nH]c[nH+]1)C(=O)[O-]`, the pKa was 5.6.
For the compound `C=CCN(CC=C)CCOC(=O)C(=C)C`, the pKa was 7.02.
Compound `NCCCCCc1cccnc1` registered a pKa of 10.3.
Compound `Cc1cc(C)n(C)c(=O)n1` returned a pKa of 4.
In the case of `N#CC(C#N)=NNc1ccccc1C(F)(F)F`, the pKa was -0.7.
Regarding `Cc1nccn1C`, the pKa was 7.64.
As for `Cc1ncc(C[NH3+])c(N)n1`, the pKa worked out at 4.
In turn, `CC1CNCCN1` (stereo unspecified) returned a pKa of 9.9.
Turning to `COc1c(O)cccc1CN`, the pKa turned out to be 8.89.
The compound `CCOC(=O)C1CN2CCC1CC2` (stereo unspecified) displayed a pKa of 9.64.

The values above are taken from the pKa sets of Baltruschat and Czodrowski (2020).
